Reference: BindingDB's records for doi:10.7270/Q2R78CQV (Burnham Center For Chemical Genomics, 2011)

Biological target: Hexokinase HKDC1 [W721R] (Homo sapiens, UniProt Q2TB90, W721R)
Assay: HKDC1 hexokinase activators, dose response, biochemical, W721R variant (AID 504730)

Hexokinase HKDC1 [W721R], sequence (Q2TB90 whole entry W721R): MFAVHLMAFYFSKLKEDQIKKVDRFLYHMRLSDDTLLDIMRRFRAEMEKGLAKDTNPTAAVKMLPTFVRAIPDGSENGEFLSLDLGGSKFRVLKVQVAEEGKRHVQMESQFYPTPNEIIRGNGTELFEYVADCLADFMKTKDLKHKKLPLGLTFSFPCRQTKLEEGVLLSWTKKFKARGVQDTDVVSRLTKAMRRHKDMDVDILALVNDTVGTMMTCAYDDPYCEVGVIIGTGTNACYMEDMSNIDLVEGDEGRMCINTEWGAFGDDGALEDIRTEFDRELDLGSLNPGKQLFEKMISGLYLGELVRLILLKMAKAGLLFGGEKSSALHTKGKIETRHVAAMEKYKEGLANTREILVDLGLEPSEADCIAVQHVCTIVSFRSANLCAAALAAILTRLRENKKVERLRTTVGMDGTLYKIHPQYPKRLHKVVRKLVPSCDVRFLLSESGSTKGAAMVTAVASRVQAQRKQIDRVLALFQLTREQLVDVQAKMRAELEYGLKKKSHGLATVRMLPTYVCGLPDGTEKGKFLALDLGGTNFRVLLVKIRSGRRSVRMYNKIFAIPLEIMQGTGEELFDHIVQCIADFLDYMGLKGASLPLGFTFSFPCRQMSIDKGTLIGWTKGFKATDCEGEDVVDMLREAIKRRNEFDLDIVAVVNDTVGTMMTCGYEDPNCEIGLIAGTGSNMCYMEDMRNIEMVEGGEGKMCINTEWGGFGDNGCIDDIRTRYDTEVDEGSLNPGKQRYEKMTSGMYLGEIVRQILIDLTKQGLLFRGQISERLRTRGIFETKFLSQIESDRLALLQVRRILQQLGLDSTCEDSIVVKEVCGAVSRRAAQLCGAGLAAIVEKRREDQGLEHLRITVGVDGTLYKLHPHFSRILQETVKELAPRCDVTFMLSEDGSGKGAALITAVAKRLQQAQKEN

EC50 | SMILES
24.7 µM | O=C1C(=C2C(=O)c3ccccc3C2=O)Nc2ccccc21 [MLS000071738]
51.6 µM | CC(=O)Oc1cccc2c(O)c3c(c(O)c12)CC=CC3OC(C)=O (centres undefined) [SMR001574207]
9.25 µM | Oc1c(Cl)c(N=Cc2cccnc2)c(O)c2ccccc12 [MLS001195521]

Continued, molecule first:

SMILES | EC50
CC(N=Nc1nc2ccccc2o1)c1cc2ccccc2cn1 (centres undefined) | 2.24 µM
CCCOC1=CC(=O)C(C=NNC(=S)Nc2ccccc2[N+](=O)[O-])C=C1 (centres undefined) [1-(2-nitrophenyl)-3-[[(E)-(6-oxo-4-propoxy-1-cyclohexa-2,4-dienylidene)methyl]amino]thiourea] | 26.5 µM
Cc1[nH]n(-c2ccccc2)c(=O)c1CN=Nc1nncc(-c2ccccc2)n1 [(4E)-5-methyl-2-phenyl-4-[[(5-phenyl-1,2,4-triazin-3-yl)hydrazo]methylidene]-3-pyrazolone] | 6.69 µM
COCc1cc(C2C(C(=O)c3ccco3)C(=O)C(=O)N2CCOCCO)ccc1O (centres undefined) [3-(furan-2-carbonyl)-4-hydroxy-1-[2-(2-hydroxyethoxy)ethyl]-2-[4-hydroxy-3-(methoxymethyl)phenyl]-2H-pyrrol-5-one] | > 80 µM
CC(C)(C)c1nnc(N=NCc2cc(Br)ccc2O)n(N)c1=O [4-azanyl-3-[2-[(E)-(3-bromanyl-6-oxidanylidene-cyclohexa-2,4-dien-1-ylidene)methyl]hydrazinyl]-6-tert-butyl-1,2,4-triazin-5-one] | 19.9 µM
Nn1cnnc1N=NCc1cc(Br)cc(Br)c1O | > 80 µM
